Blank lines part the entries; values can stand above or below the compound they belong to.
Experiments:
Assay type in all cases: cell-based
[1] = target: VEGFR-2 (Homo sapiens, UniProt P35968); test: Ligand-induced autophosphorylation in VEGFR-2-expressing PAE cells (immunoprecipitation, Western blot); details: PAE/VEGFR-2 cells, VEGF stimulated; 0.5, 5 or 50 μM; FIG. 1
Experimental: (§1) VEGFR-2- and VEGFR-3-expressing PAE cells (pig aorta endothel cells) were incubated with 0.5 μM, 5 μM or 50 μM of the appropriate test compound. The cells were then stimulated with VEGF (VEGFR-2) or VEGF-C (VEGFR-3) or without growth factor as negative control. The cells were harvested after 15 min and immunoprecipitated with VEGFR-2 or VEGFR-3. The immunoprecipitates were blotted after electrophoresis and investigated with anti-phosphotyrosine antibody. The blots were detached and investigated with VEGFR-2 or VEGFR-3 antibody to check the loading.
(§2) PAE/VEGFR-2 or PAE/VEGFR-3 were seeded in 15 cm tissue culture tissues and cultivated to 50% confluence. The cells were then starved in serum-free medium (with 0.2% BSA) for 16-24 h (PAE/VEGFR-3) or 72 h […]. After preincubation with 5 ml of 1 mM serum-free medium (1 mM Na3VO4) and various inhibitor concentrations for 30-60 min, the cells were stimulated at 37° C. for 5 min (VEGFR-3) or 8 min (VEGFR-2). The cells were then rapidly washed twice with ice-cold PBS (with 1 mM Na3VO4) and lysed with ice-cold modified RIPA buffer (30 mM Tris-HCl, pH 7.4, 150 mM NaCl, 1 mM EDTA, 0.5% (v/v) Triton X100, 0.5% (w/v) sodium deoxycholate, 10 mM NaF) freshly prepared with 1 mM PMSF, 0.1 U/ml aprotinin, 10 ng/ml leupeptin and 5 mM Na3VO4. The cells were harvested from the plate with the aid of a rubber policeman and collected in centrifuge tubes on ice. The lysates were solubilized by forcing through a syringe with a 25 G needle, and were centrifuged at 4° C./13 000 rpm for 15 min to remove insoluble constituents.
(§3) The clear lysates were incubated with 4 μg of anti-VEGFR-2 (C-1158, Santa Cruz) or […] at 4° C. overnight.
The receptor-antibody complex was precipitated by adding 30 μl of protein A-Sepharose (Amersham)/tube and incubating at 4° C. for a further 2 hours. […]

[2] = test system: rat pancreatic tumor cells (1AS); test: Apoptosis, Cell Death Detection ELISA (nucleosome ELISA); details: 1AS cells, 24 h; FIG. 5
Experimental: (§4) Human endothelial cells (HDMEC) and rat pancreatic tumor cells (1AS) were resuspended (10^5 cells/ml). 50 μl of cell suspension were seeded in 96-well cell culture plates and incubated at 37° C. for 24 h. The cells were then incubated with the stated concentrations of the various inhibitors for a further 24 h. The pro-apoptotic effect of the compounds was determined using the Cell Death Detection ELISA^plus kit (Roche Diagnostics GmbH, Mannheim) in accordance with the manufacturer's statements. The kit contains a photometric enzyme immunoassay for qualitative and quantitative in vitro determination of cytoplasmic histone-associated DNA fragments (mono- and oligo-nucleosomes) released through active cell death (apoptosis). […] The measurements relative to the untreated cells are plotted against the inhibitor concentration.
(§5) FIG. 5: Nucleosome ELISA test (Cell Death Detection ELISA). The extent of dead cells of the respective cell line is depicted (as relative absorption at 405 nm) in relation to the use of the inhibitors MAE87, MAE106 and MAZ51 and MAZ51-2.

[3] = test system: Human endothelial cells (HDMEC); test: as above; details: 24 h, FIG. 5
Experimental: as §4, §5

[4] = target: VEGFR-3 (Homo sapiens, UniProt P35916); test: Ligand-induced autophosphorylation in VEGFR-3-expressing PAE cells (immunoprecipitation, Western blot); details: for inhibition of ligand-induced autophosphorylation of VEGFR-3: PAE/VEGFR-3 cells, VEGF-C stimulated, 0.5, 5 or 50 μM, FIG. 1
Experimental: as §1, §2, §3
The receptor-antibody complex was precipitated by adding 30 μl of protein A-Sepharose (Amersham)/tube and incubating at 4° C. for a further 2 hours.
The Sepharose were then centrifuged at 4° C. for 1 min and washed three times with cold washing buffer (30 mM Tris-HCl, pH 7.4, 150 mM NaCl, 1 mM EDTA, 0.5% (v/v) Triton X100, 0.5% (w/v) sodium deoxycholate, 10 mM NaF) freshly prepared with 1 mM PMSF, 0.1 U/ml aprotinin, 10 ng/ml leupeptin and 5 mM Na3VO4. The remainder of the washing buffer was removed by aspiration through a syringe provided with a 27 G needle. The Sepharose beads were resuspended in 50 μl of SDS loading buffer, boiled and loaded onto a 6% […] gel. After the electrophoretic fractionation, the proteins were fixed on an appropriate membrane by Western blotting. The blots were investigated first with the aid of an anti-phosphotyrosine antibody (RC20:HRPO, Becton Dickinson) and then the first antibody was removed again in order to investigate the blot for the protein loading with specific anti-receptor antibodies. […]

Sequence of VEGFR-3 (P35916 25-1363): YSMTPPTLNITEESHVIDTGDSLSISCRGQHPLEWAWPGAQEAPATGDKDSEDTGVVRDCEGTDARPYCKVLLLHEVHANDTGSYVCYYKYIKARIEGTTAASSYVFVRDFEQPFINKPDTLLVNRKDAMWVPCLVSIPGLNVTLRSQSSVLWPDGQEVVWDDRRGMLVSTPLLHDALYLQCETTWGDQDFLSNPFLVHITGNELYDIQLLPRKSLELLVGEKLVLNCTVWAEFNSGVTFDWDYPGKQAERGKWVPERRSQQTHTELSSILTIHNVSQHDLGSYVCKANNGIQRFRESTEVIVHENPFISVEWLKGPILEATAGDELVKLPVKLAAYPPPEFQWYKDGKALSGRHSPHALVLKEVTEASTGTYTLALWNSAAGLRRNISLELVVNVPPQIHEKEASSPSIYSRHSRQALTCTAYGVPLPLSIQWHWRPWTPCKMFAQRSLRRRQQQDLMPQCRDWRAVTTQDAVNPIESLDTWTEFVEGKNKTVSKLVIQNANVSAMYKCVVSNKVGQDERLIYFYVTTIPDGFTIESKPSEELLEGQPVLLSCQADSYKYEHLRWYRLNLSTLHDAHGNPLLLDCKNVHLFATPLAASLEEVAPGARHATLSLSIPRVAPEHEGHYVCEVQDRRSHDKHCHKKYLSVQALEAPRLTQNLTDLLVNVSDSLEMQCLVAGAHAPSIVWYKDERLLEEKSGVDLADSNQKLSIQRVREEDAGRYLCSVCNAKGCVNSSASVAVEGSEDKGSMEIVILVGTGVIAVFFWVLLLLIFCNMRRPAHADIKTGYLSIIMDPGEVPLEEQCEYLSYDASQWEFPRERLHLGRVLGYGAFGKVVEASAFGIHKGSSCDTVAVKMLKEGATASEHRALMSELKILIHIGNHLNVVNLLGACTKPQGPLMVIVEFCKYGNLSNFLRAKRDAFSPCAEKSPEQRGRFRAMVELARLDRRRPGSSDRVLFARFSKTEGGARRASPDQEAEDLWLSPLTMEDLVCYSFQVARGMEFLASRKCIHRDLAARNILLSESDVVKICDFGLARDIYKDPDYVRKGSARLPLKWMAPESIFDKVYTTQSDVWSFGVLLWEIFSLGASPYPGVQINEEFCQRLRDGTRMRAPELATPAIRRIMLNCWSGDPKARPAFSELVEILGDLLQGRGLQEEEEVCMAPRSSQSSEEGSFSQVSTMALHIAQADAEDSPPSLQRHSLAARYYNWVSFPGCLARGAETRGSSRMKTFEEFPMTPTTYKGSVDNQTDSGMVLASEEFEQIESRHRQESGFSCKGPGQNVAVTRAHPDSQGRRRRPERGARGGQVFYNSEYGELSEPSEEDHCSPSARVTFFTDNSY
Sequence of VEGFR-2 (P35968 20-1356): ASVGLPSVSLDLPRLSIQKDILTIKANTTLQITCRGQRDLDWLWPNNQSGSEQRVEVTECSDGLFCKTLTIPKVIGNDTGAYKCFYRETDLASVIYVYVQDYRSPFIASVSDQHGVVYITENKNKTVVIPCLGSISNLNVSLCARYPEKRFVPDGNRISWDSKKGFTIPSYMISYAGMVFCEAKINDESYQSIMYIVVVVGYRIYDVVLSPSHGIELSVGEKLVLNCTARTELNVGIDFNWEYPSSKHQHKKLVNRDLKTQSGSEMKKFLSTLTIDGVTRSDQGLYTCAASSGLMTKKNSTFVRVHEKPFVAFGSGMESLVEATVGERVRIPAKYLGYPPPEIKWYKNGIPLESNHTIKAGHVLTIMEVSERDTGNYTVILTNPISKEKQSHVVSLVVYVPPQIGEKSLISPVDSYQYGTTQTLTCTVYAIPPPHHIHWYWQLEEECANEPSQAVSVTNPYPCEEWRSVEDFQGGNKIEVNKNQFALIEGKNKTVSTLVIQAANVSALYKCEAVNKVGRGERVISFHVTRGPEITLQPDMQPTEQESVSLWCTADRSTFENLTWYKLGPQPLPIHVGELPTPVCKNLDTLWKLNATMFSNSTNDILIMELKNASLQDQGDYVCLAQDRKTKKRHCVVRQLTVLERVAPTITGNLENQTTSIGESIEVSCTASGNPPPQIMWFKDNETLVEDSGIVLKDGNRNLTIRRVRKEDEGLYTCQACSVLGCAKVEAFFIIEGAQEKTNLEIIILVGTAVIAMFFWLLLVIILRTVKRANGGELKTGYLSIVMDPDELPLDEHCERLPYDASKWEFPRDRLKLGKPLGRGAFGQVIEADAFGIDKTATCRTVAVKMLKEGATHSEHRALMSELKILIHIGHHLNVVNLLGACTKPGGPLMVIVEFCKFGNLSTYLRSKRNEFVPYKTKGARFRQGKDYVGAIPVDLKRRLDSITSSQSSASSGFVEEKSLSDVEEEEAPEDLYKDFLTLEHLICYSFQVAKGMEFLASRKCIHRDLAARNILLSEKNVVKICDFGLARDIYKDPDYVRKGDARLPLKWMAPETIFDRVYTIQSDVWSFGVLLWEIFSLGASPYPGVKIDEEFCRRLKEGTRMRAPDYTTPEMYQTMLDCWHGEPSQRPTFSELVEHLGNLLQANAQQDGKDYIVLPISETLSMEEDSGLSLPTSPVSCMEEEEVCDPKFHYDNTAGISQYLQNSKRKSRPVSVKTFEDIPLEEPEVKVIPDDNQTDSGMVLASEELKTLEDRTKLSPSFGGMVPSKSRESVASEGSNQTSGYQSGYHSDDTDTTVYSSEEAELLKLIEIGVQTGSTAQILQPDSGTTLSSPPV

Compound: COc1ccc(C=C2C(=O)Nc3ccccc32)cc1F [MAE106, 3-(3-Fluoro-4-methoxybenzylidene)-1,3-dihydroindole-2-one]
- inhibition of ligand-induced autophosphorylation of VEGFR-2 [1]: Inhibit the Ligand-Induced Autophosphorylation
- induction of apoptosis (relative absorption at 405 nm) [2]: Induced Apoptosis
- induction of apoptosis (relative absorption at 405 nm) [3]: Induced Apoptosis
- inhibition of ligand-induced autophosphorylation of VEGFR-3 [4]: Inhibit the Ligand-Induced Autophosphorylation

Compound: O=C1Nc2ccccc2C1=Cc1ccc(O)cc1O [MAE87, 3-(2,4-Dihydroxybenzylidene)-1,3-dihydroindol-2-one]
- inhibition of ligand-induced autophosphorylation of VEGFR-2 [1]: Inhibit the Ligand-Induced Autophosphorylation
- induction of apoptosis (relative absorption at 405 nm) [2]: Induced Apoptosis
- induction of apoptosis (relative absorption at 405 nm) [3]: Induced Apoptosis
- inhibition of ligand-induced autophosphorylation of VEGFR-3 [4]: Inhibit the Ligand-Induced Autophosphorylation

- selectivity of inhibition of autophosphorylation, VEGFR-3 versus VEGFR-2 ([4]; 5 μM, PAE cells): selectively inhibits VEGFR-3
Compound: CN(C)c1ccc(C=C2C(=O)Nc3ccccc32)c2ccccc12 [MAZ51, 3-(4-Dimethylaminonaphthalen-1-ylmethylene)-1,3-dihydroindol-2-one]
- inhibition of ligand-induced autophosphorylation of VEGFR-2 [1]: Inhibit the Ligand-Induced Autophosphorylation
- induction of apoptosis (relative absorption at 405 nm) [2]: potent activator of apoptosis
- induction of apoptosis (relative absorption at 405 nm) [3]: potent activator of apoptosis
- inhibition of ligand-induced autophosphorylation of VEGFR-3 [4]: Inhibit the Ligand-Induced Autophosphorylation
